No end group written: not given here.
Experiments:
rat pulp exposure model = experiment: Rat tooth pulp exposure model, histologic analysis (H&E) of inflammatory response and hard tissue formation; format: in vivo
Procedure: Seven-week-old male Sprague-Dawley rats were purchased from the OrientBio after approval from the Institutional Animal Care and Use Committee of Seoul National University (No. SNU-180109-2) was obtained. […] Resin cement (Rely X U-200, 3M ESPE, MN, USA) was used as the final restoration in all experimental groups.
Specifically, the rats were anesthetized by the intraperitoneal injection of 31.25 mg/kg tiletamine/zolazepam and 8.75 mg/kg xylazine. After ascertaining the general anesthesia, the oral cavity was opened with a customized wire to expose the lower first molars. After cleaning and sanitizing with both 3% H2O2 and a 10% Betadine-soaked cotton, the center of the occlusal surface was carefully punctured using a #¼ round bur (0.5 mm in diameter) with a high-speed hand piece. MTA (ProRoot MTA, Dentsply Sirona, York, PA, USA) was mixed according to the manufacturer's instruction and the mixture was applied to the exposed pulp. […] The punctured sites were covered with resin cement after the application of MTA or the collagen sponge. In the Resin group, resin cement was directly applied to the punctured site. The sharp cusp tips of the upper molar and lower first molar were grinded using a football shaped diamond bur in order to prevent tooth fractures by mastication.
Rats were histologically analyzed 2 and 4 weeks after pulp exposure surgery. Whole mandibles were fixed f in 4% paraformaldehyde at 4° ° C. for 24 hours. For histological staining, the specimens were decalcified with 12% EDTA for 4 weeks and embedded in paraffin. […] Each sample was evaluated and scored for inflammatory response and hard tissue formation according to the criteria presented in [Table 2] below.

[1] = system: human dental pulp cells (hDPCs); experiment: Cell viability assay of hDPCs (water-soluble tetrazolium salt); format: cell-based; details: 50, 100 and 200 μg/ml, 24 or 48 hours
Procedure: Human dental pulp cells (hDPCs) were collected from the patient's third molars after patient consent and approval from the Institutional Review Board (IRB) of Seoul National University Dental Hospital (IRB No. CRI19007) were obtained. The hDPCs were passaged three times in Dulbecco's modified Eagle's medium (DMEM; Gibco BRL, Carlsbad, CA, USA) supplemented with 10% fetal bovine serum (FBS) and 1% penicillin/streptomycin (10,000 U/ml penicillin, 10,000 μg/ml streptomycin; Gibco, Paisley, Scotland). In order to induce odontogenic differentiation, the hDPCs were then cultured using DMEM supplemented with 10% FBS, 1% penicillin/streptomycin, 10 mM β-glycerophosphate, 200 μM ascorbic acid, and 0.1 μM dexamethasone.
The viability of hDPCs in the presence of VnP-16 was investigated using an Cytox Cell Viability Assay Kit (DoGenBio, Seoul, Korea). A 96-well culture plate was treated with 50, 100 and 200 μg/ml VnP-16, and then 1.5×10^4 cells were plated into each well, and incubated for 24 or 48 hours at 37° C. The water-soluble tetrazolium salt reagent ([…] ) was added to each well, and the plate was incubated at 37 °C for 2 hours. Finally, absorbance at 450 nm was measured using a microplate reader (Epoch2, Bio-Tek, VT, USA).

[2] = system: human dental pulp cells (hDPCs); experiment: hDPCs cell attachment assay on coated plates; format: cell-based; details: immobilized on plates (vitronectin 0.26 μg/cm2, peptides 10.5 μg/cm2), 1 hour
Procedure: First, for the cell attachment assay, 48-well culture plates were coated with human plasma vitronectin (0.26 μg/cm2) at 4° C. for 24 hours. The SP and VnP-16 (10.5 μg/cm2) were also coated on the plates by drying at room temperature for 24 hours. […] The peptide-coated plates were blocked with 1% heat-inactivated bovine serum albumin (BSA) in phosphate-buffered saline (PBS) at 37° ° C. for 1 hour, and then washed with PBS. The hDPCs (5×10^4 cells/250 μL) were added to each plate and incubated at 37° ° C. for 1 hour, and then unattached cells were removed by rinsing the plates twice with PBS. The attached cells were fixed with 10% formalin for 15 minutes and stained with 0.5% crystal violet for 1 hour. The plates were then gently washed three times with double-distilled water. Afterwards, the contents of each well were solubilized in 2% sodium dodecyl sulfate for 5 minutes, and then absorbance at 570 nm was measured using a microplate reader.

[3] = system: human dental pulp cells (hDPCs); experiment: Scratch wound migration assay; format: cell-based; details: vitronectin 1.25 μg/ml, VnP-16 50 μg/ml; 0, 24 and 48 hours
Procedure: In order to evaluate the migration ability and wound healing ability of hDPCs, the scratch assay was used. The hDPCs were plated in a 24-well plate and incubated in complete medium until 80% confluence. Then, the cells were passaged in serum-free medium for 24 hours, and then stimulated by scratching with a 200 μl pipette tip. After PBS washing to remove cell debris, the cultures were treated with vehicle (10% DMSO), vitronectin (1.25 μg/ml), SP (50 μg/ml), or VnP-16 (50 μg/ml). Pictures were taken using a microscope (Nikon, Tokyo, Japan) at 0, 24 and 48 hours after treatment. The data were analyzed using Image Pro Plus software (version 4.5; Media Cybernetics, MD, USA) to compare the percentage of scratch closure from 0 hour to 48 hours time point. The percentage of: scratch closure was calculated by the following equation: Scratch closure %=[A (0)−A(t)/A(0)]×100. Wherein the scratch area at time zero is “A (0)”; and the area after the incubation time (t) is “A(t)”. The scratch wound migration assay was performed in triplicate.

[4] = system: human dental pulp cells (hDPCs); experiment: hDPCs cell spreading assay on coated plates; format: cell-based; details: immobilized on plates (vitronectin 0.26 μg/cm2, peptides 10.5 μg/cm2), 3 hours
Procedure: In addition, for the cell spreading assay, hDPCs (3×10^4 cells/250 μL) were incubated at 37° ° C. for 3 hours on each peptide-coated plate in the same manner as above. The attached cells were fixed with 10% formalin and stained with 0.5% crystal violet for 1 hour. Then, the plates were gently washed three times with PBS, and then the degree of cell spreading was assessed by measuring the surface area of the cells using Image Pro Plus software (version 4.5; Media Cybernetics, Silver Spring, MD, USA).

## FVWRQFYKYEKG [SP, scrambled peptide used as a negative control]
Rat pulp exposure model; 2 weeks after pulp exposure surgery
  newly formed mineralized tissues at the pulp-exposed sites: hardly detected
Rat pulp exposure model; 4 weeks after pulp exposure surgery
  hard tissue formation: showed hard tissue formation
Rat pulp exposure model; 4 weeks after pulp exposure surgery, H&E
  quality of the reparative dentin: non-tubular and large cell-inclusion structure

## RVYFFKGKQYWE-NH2 [VnP-16]
[1]
  cytotoxicity to hDPCs (cell viability): no cytotoxicity

B1: vitronectin: human plasma vitronectin purchased from Millipore, used as a positive control (protein, UniProt P04004 20-478, looked up)
Vitronectin: DQESCKGRCTEGFNVDKKCQCDELCSYYQSCCTDYTAECKPQVTRGDVFTMPEDEYTVYDDGEEKNNATVHEQVGGPSLTSDLQAQSKGNPEQTPVLKPEEEAPAPEVGASKPEGIDSRPETLHPGRPQPPAEEELCSGKPFDAFTDLKNGSLFAFRGQYCYELDEKAVRPGYPKLIRDVWGIEGPIDAAFTRINCQGKTYLFKGSQYWRFEDGVLDPDYPRNISDGFDGIPDNVDAALALPAHSYSGRERVYFFKGKQYWEYQFQHQPSQEECEGSSLSAVFEHFAMMQRDSWEDIFELLFWGRTSAGTRQPQFISRDWHGVPGQVDAAMAGRIYISGMAPRPSLAKKQRFRHRNRKGYRSQRGHSRGRNQNSRRPSRATWLSLFSSEESNLGANNYDDYRMDWLVPATCEPIQSVFFFSGDKYYRVNLRTRRVDTVDPPYPRSIAQYWLGCPAPGHL
[2]
  cell attachment of hDPCs: strongly promoted cell attachment and spreading
[3]
  wound migration of hDPCs (scratch closure): strongly promoted the wound migration
[4]
  cell spreading of hDPCs: strongly promoted cell attachment and spreading

Reference: patent US20240207141A1, “PEPTIDE HAVING REPARATIVE DENTIN-REGENERATING ACTIVITY AND USE THEREOF” (SEOUL NATIONAL UNIVERSITY R&DB FOUNDATION, priority 2022, published 2024)
